Test results reported in US9447053B2, “Process for the preparation of calcobutrol” (Bayer Intellectual Property GMBH, priority 2009, dated 2016).

How the values were obtained:
[1] = pH-potentiometric equilibrium titrations of the ligand (butrol) in the presence of Ca2+ ions; type: physicochemical
Description: The thermodynamic stability constant of Calcobutrol and the acid dissociation constant have been determined by pH-potentiometric equilibrium titrations of the ligand (butrol) in the presence of Ca^2+ ions (at 25° C., in 0.1 N KCl) at different ratios of Ca^2+:ligand.
Based on these measured values, the distribution of calcium between free calcium ion, neutral complex (Calcobutrol, ligand has two negative charges), and anionic complex (ligand has three negative charges) can be calculated for different pH values. […] Due to this equilibrium between the calcium-containing species, preparative methods in aqueous solution will lead to some impurities.

[2] = Properties of the Calcobutrol product and of Gadovist solutions prepared from it; type: physicochemical; conditions: product of the process
Description: The Calcobutrol prepared in this manner is characterised by a very high quality. […] The whole process, from Gadobutrol to Calcobutrol, is characterised by a high reproducibility and workability. The total yield of 91.2% is very good. […] The sodium salt of Calcobutrol is obtained through addition of a stoichiometric amount of sodium hydroxide in situ.

thermodynamic stability constant log(KCaL-) ([1]; 25° C., 0.1 N KCl, different ratios of Ca2+:ligand, KCaL-=[CaL-]/[Ca2+][L3-]): 14.67±0.02
acid dissociation constant pKa ([1]; 25° C., 0.1 N KCl, Ka=[CaL-][H+]/[CaLH]): 3.39±0.12
share of neutral complex among the calcium-containing species ([1]; calculated from measured constants, at any pH (FIG. 1)): ≤ 20%
solubility in water [2]: soluble in water
storage stability [2]: stable for storage
SMILES: O=C([O-])CN1CCN(CC(=O)[O-])CCN(C(CO)C(O)CO)CCN(CC(=O)[O-])CC1.O=C([O-])CN1CCN(CC(=O)[O-])CCN(C(CO)C(O)CO)CCN(CC(=O)[O-])CC1.[Ca+2].[Ca+2].[Ca+2] (centres unmarked) [Calcobutrol, calcium complex of 10-(2,3-Dihydroxy-1-(hydroxymethyl)propyl)-1,4,7,10-tetraazacyclodecane-1,4,7-triacetic acid]
